Reference: patent publication US6403606B1, “Thienopyridine derivatives and their use” (Takeda Chemical Industries Ltd., priority 1996, dated 2002)
Marks after values point to notes of the source that are not given here.

Columns and labels:
[1] = system: fetal rat bone culture (humeri, radii and ulnae); assay: Bone resorption inhibitory activity, 45Ca release from fetal rat bone culture (Test Example 2B); format: cell-based, Sprague-Dawlay rat; conditions: 10 μM compound, 2 days culture; 45Ca release as % of control without compound (lower = more inhibition)
Protocol: (§1) The measurement of bone resorption inhibitory activity was carried out according to the method of Raisz [J. Clin. Invest., 44, 103-116 (1965)]. Namely, 50 μCi of ^45Ca (radioisotope of calcium in CaCl2 solution) was subcutaneously injected into a Sprague-Dawlay rat of 18th day of pregnancy. On the next day, the abdomen was opened and a fetal rat was taken out sterilely. The left and right humeri (radii and ulnae) were removed from the body under a dissection microscope and connective tissues and cartilages were removed as much as possible. Thus, bone culture samples were prepared. The bone was incubated in a medium (0.6 ml) of BCJb medium (Fitton-Jackson modification: GIBCO Laboratories, U.S.A.) containing 2 mg/ml of bovine serum albumin at 37° C. for 24 hours in an atmosphere of 5% of CO2 in air. The bones were cultured for an additional 2 days in the above medium containing a final concentration of 10 μM of the compound. The ratio (%) of ^45Ca released from the bone into the medium was calculated according to the following equation. [formula]
(§2) The bones from the same litter were cultured for 2 days the same manner without addition of the compound, and used as the control. The mean±standard deviation of the values for five bones of each group was calculated. The ratio (%) of this value to the control value was calculated. The results are shown in Table 4 (In the tables hereinafter, Ex. No. indicates Example No.).

Rat Adjuvant Arthritis = assay: Activity on rat adjuvant arthritis (Test Example 1B); format: in vivo, Male Lewis rats; conditions: N=6; for Body weight gain rate (%): day 14; for Edema inhibitory rate (%): left hind paw volume day 14
Protocol: Male Lewis rats (7 weeks old, Clea Japan) were sensitized by intracutaneous injection of 0.05 ml of Freund's complete adjuvant (0.5% dead tubercle bacillus cell suspension in liquid paraffin) at the right hind paw. The test drug (6.25 mg/kg or 3.13 mg/kg), in a suspension in 0.5% methyl cellulose, was administered once daily for 14 days starting just before sensitization (day 0). At the days 0 and 14, the left hind paw volume and body weight of the animals were measured using a plethysmometer (manufactured by Ugo Basile Company, Italy) and an electronic balance (EB-3200D, manufactured by Shimadzu Corporation, Japan), respectively, and paw swelling suppression rate (%) and body weight gain rate (%), relative to non-sensitized rats, were determined.
The results, expressed in mean±S.E. for each group (N=6), were compared and statistically analyzed by Dunnet method. Level of significance was set below 5%.

[2] = system: fetal rat bone culture (humeri, radii and ulnae); assay: Bone resorption inhibitory activity, 45Ca release from fetal rat bone culture (Test Example 2A); format: cell-based, Sprague-Dawlay rat; conditions: 10 μM compound, 2 days culture; 45Ca release as % of control without compound (lower = more inhibition)
Protocol: as §1
as §2, with “2” for “4”

[3] = 6.25 mg/kg once daily for 14 days
[4] = 3.13 mg/kg once daily for 14 days

melting point | Compound | Bone resorption inhibitory inhibitory activity (^45Ca release) (% based on the control value) [1] | Bone resorption inhibitory activity (^45Ca release) (% based on the control value) [2] | further results
96 to 98 °C | CCOC(=O)c1c(CN(CC)CC)nc2sc3c(c2c1-c1ccc(OC)c(OC)c1)CCN(C(=O)c1ccc(Cl)cc1)C3 [Example 2A, ethyl 7-(4-chlorobenzoyl)-2-(N,N-diethylaminomethyl)-4-(3,4-dimethoxyphenyl)-5,6,7,8-tetrahydrothieno[2,3-b:5,4-c′]dipyridine-3-carboxylate] | – | 62** % based on the control value | –
72 to 75 °C | CCOC(=O)c1c(CN(CC)CC)nc2sc3c(c2c1-c1ccc(OC)c(OC)c1)CCNC3 [Example 5A, ethyl 2-(N,N-diethylaminomethyl)-4-(3,4-dimethoxyphenyl)-5,6,7,8-tetrahydrothieno-[2,3-b:5,4-c′]dipyridine-3-carboxylate] | – | 72* % based on the control value | –
154 to 155 °C | CCOC(=O)c1c(CN(CC)CC)nc2sc3c(c2c1-c1ccc(OC)c(OC)c1)CCN(C(=O)Nc1ccccc1)C3 [Example 12A, ethyl 2-(N,N-diethylaminomethyl)-4-(3,4-dimethoxyphenyl)-7-phenylcarbamoyl-5,6,7,8-tetrahydrothieno[2,3-b:5,4-c′]dipyridine-3-carboxylate] | – | 77* % based on the control value | –
114 to 116 °C | CCOC(=O)c1c(CCCn2cncn2)nc2sc3c(c2c1-c1ccc(OC)c(OC)c1)CCN(C(=O)c1ccc(Cl)cc1)C3 [Example 27A, ethyl 7-(4-chlorobenzoyl)-4-(3,4-dimethoxyphenyl)-5,6,7,8-tetrahydro-2-[3-(1,2,4-triazol-1-yl]propyl]thieno[2,3-b:5,4-c′]dipyridine-3-carboxylate] | – | 74* % based on the control value | –
165 to 166 °C | CCOC(=O)c1c(CCCCn2cncn2)nc2sc3c(c2c1-c1ccc(OC)c(OC)c1)CCN(C(=O)c1ccc(Cl)cc1)C3 [Example 28A, ethyl 7-(4-chlorobenzoyl)-4-(3,4-dimethoxyphenyl)-5,6,7,8-tetrahydro-2-[4-(1,2,4-triazol-1-yl]butyl]thieno[2,3-b:5,4-c′]dipyridine-3-carboxylate] | – | 67*** % based on the control value | –

The next lines start with the compound.

Compound | melting point | Bone resorption inhibitory inhibitory activity (^45Ca release) (% based on the control value) [1] | Bone resorption inhibitory activity (^45Ca release) (% based on the control value) [2] | further results
7-benzyl-3-chloro-4-(3,4-dimethoxyphenyl)-2-(2-oxo-1-piperidinylmethyl)-5,6,7,8-tetrahydrothieno[2,3-b:5,4-c′]dipyridine [Example 24B] | – | 44** % based on the control value | – | –
7-benzyl-3-chloro-4-(3,4-dimethoxyphenyl)-2-(2-oxo-1-pyrrolidinylmethyl)-5,6,7,8-tetrahydrothieno[2,3-b:5,4-c′]dipyridine [Example 28B] | – | 47** % based on the control value | – | Body weight gain rate (%) (Rat Adjuvant Arthritis; [3]): 19** %; Edema inhibitory rate (%) (Rat Adjuvant Arthritis; [3]): 78** %
7-benzyl-3-chloro-4-(4-hydroxy-3-methoxyphenyl)-2-(2-oxo-1-pyrrolidinylmethyl)-5,6,7,8-tetrahydrothieno[2,3-b:5,4-c′]dipyridine [Example 29B] | – | – | – | Body weight gain rate (%) (Rat Adjuvant Arthritis; [4]): 12%; Edema inhibitory rate (%) (Rat Adjuvant Arthritis; [4]): 69** %
COc1ccc(-c2c(Cl)c(CN3CCCCCC3=O)nc3sc4c(c23)CCN(Cc2ccccc2)C4)cc1OC [Example 25B, 7-benzyl-3-chloro-4-(3,4-dimethoxyphenyl)-2-(2-oxohexamethyleneiminomethyl)-5,6,7,8-tetrahydrothieno[2,3-b:5,4-c′]dipyridine] | 113 to 114 °C | 52** % based on the control value | – | –
CCOC(=O)c1c(CN(CC)CC)nc2sc3c(c2c1-c1ccc(CC)cc1)CCNC3 [Example 33A, ethyl 4-(4-ethylphenyl)-5,6,7,8-tetrahydro-2-(N,N-diethylaminomethyl)thieno[2,3-b:5,4-c′]dipyridine-3-carboxylate] | 107 to 108 °C | – | 72** % based on the control value | –
